According to patent US20100075960A1 (priority 2006, published 2010):

What was measured:
Type in all cases: cell-based
P388 = experiment: Inhibition of cell proliferation, P388; conditions: Mouse leukemia, 72 h, methylene blue or CellTiter-Glo
Description: (§1) II. Inhibition of Cell Proliferation by PLK1 Inhibitors.
(§2) Exponentially growing cell lines of different tumor origins, cultured in appropriate media containing 10% fetal bovine serum at 37° C. in a 5% CO2 incubator were plated in 96 or 384-well plates. Twenty four hours post-plating, cells were treated with different concentrations of test compounds ranging from 20 μM to 0.04 nM. Several wells were left untreated as a control. Seventy two hours post-treatment, cell numbers were determined using different techniques; 100 μl per well of methylene blue (Sigma M9140) (0.5% in 50:50 Ethanol:water), or 10-100 μl per well of CellTiter-Glo (Promega #G7573), depending on well size. For methylene blue staining, stain was incubated at room temperature for 30 minutes before plates were rinsed and dye solubilized in 1% N-lauroyl sarcosine, sodium salt, (Sigma L5125, in PBS). Plates were read on a microplate reader, measuring the OD at 620 nm. For CellTiter-Glo, plates were incubated at room temperature for 15 minutes and the chemiluminescent signal was read on the Victor V or Envison 2100 reader.
(§3) Percent inhibition of cell growth was expressed as percent proliferation relative to 100% proliferation (control). Concentration of test compound that inhibited 50% of cell growth (IC50) was determined by 4 parameter fit of data using XLfit, (value of no cell control was substracted from all samples for background). The data are shown in Table 1 and Table 2 below and represent a compilation of several different experiments each performed using the general parameters outlined above, although minor variations may have been employed in some instances, in Table 1 and Table 2, +=IC50>1 μM; ++=IC50 0.5-1 μM: +++=IC50<0.5 μM.

Panc 02.03 = experiment: Inhibition of cell proliferation, Panc 02.03; conditions: Homo sapiens, pancreas, 72 h, methylene blue or CellTiter-Glo
Description: as §1, §2
(§4) Percent inhibition of cell growth was expressed as percent proliferation relative to 100% proliferation (control). […]

ASPC3 = experiment: Inhibition of cell proliferation, ASPC3; conditions: Pancreatic; 72 h; methylene blue or CellTiter-Glo
Description: as §1, §2, §4

Saos-2 = experiment: Inhibition of cell proliferation, Saos-2; conditions: Homo sapiens, bone, 72 h, methylene blue or CellTiter-Glo
Description: as §1, §2, §4

H1299 = experiment: Inhibition of cell proliferation, H1299; conditions: Homo sapiens, NCI-H1299; Lung; 72 h; methylene blue or CellTiter-Glo
Description: as §1, §2, §4

HT-1080 = experiment: Inhibition of cell proliferation, HT-1080; conditions: Homo sapiens, connective tissue, 72 h, methylene blue or CellTiter-Glo
Description: as §1, §2, §4

HCT116 = experiment: Inhibition of cell proliferation, HCT116; conditions: Homo sapiens, HCT-116; 72 h treatment; methylene blue or CellTiter-Glo
A431 = experiment: Inhibition of cell proliferation, A431; conditions: Homo sapiens, A-431; skin; 72 h; methylene blue or CellTiter-Glo
Description: as §1, §2, §4

COLO205 = experiment: Inhibition of cell proliferation, COLO205; conditions: Homo sapiens, COLO 205; Colon; 72 h; methylene blue or CellTiter-Glo
Description: as §1, §2, §3

CEM/C1 = experiment: Inhibition of cell proliferation, CEM/C1; conditions: peripheral blood, 72 h, methylene blue or CellTiter-Glo
Description: as §1, §2, §4

T-47D = experiment: Inhibition of cell proliferation, T-47D; conditions: Homo sapiens, T47D; breast; 72 h; methylene blue or CellTiter-Glo
Description: as §1, §2, §4

MALME-3M = experiment: Inhibition of cell proliferation, MALME-3M; conditions: Homo sapiens, skin, derived from lung, 72 h, methylene blue or CellTiter-Glo
Description: as §1, §2, §4

MV522 = experiment: Inhibition of cell proliferation, MV522; conditions: Lung, 72 h, methylene blue or CellTiter-Glo
Description: as §1, §2, §4

U87-MG = experiment: Inhibition of cell proliferation, U87-MG; conditions: Homo sapiens, U-87 MG; brain; 72 h; methylene blue or CellTiter-Glo
Description: as §1, §2, §4

HN5 = experiment: Inhibition of cell proliferation, HN5; conditions: 72 h
Description: as §1, §2, §3

LNCaP = experiment: Inhibition of cell proliferation, LNCaP; conditions: Homo sapiens, Prostate, 72 h, methylene blue or CellTiter-Glo
Description: as §1, §2, §4

HCT-15 = experiment: Inhibition of cell proliferation, HCT-15; conditions: Homo sapiens, colon, 72 h, methylene blue or CellTiter-Glo
Description: as §1, §2, §4

MDA-MB-468 = experiment: Inhibition of cell proliferation, MDA-MB-468; conditions: Homo sapiens, Breast, 72 h, methylene blue or CellTiter-Glo
Description: as §1, §2, §4

BT549 = experiment: Inhibition of cell proliferation, BT549; conditions: Homo sapiens, BT-549; breast; 72 h; methylene blue or CellTiter-Glo
Description: as §1, §2, §4

Hep3B = experiment: Inhibition of cell proliferation, Hep3B; conditions: Homo sapiens, liver, 72 h, methylene blue or CellTiter-Glo
Description: as §1, §2, §4

T24 = experiment: Inhibition of cell proliferation, T24; conditions: Homo sapiens, T-24; urinary bladder; 72 h; methylene blue or CellTiter-Glo
Description: as §1, §2, §4

A2780 = experiment: Inhibition of cell proliferation, A2780; conditions: Homo sapiens, ovary, 72 h, methylene blue or CellTiter-Glo
Description: as §1, §2, §4

SW156 = experiment: Inhibition of cell proliferation, SW156; conditions: kidney; 72 h; methylene blue or CellTiter-Glo
Description: as §1, §2, §4

MiaPaca = experiment: Inhibition of cell proliferation, MiaPaca; conditions: Homo sapiens, MIA PaCa-2; Pancreatic; 72 h; methylene blue or CellTiter-Glo
Description: as §1, §2, §4

C[C@@H](Oc1cc(-n2cnc3cc(-c4cnn(C)c4)ccc32)sc1C(N)=O)c1cccc(OC2CCN(C)CC2)c1Cl [Example 48]
IC50 (P388): < 500 nM | IC50 (Panc 02.03): < 500 nM | IC50 (ASPC3): < 500 nM | IC50 (Saos-2): < 500 nM | IC50 (H1299): < 500 nM | IC50 (HT-1080): < 500 nM | IC50 (HCT116): < 500 nM | IC50 (A431): < 500 nM | IC50 (COLO205): < 500 nM | IC50 (CEM/C1): < 500 nM | IC50 (T-47D): > 1000 nM | IC50 (MALME-3M): > 1000 nM | IC50 (MV522): < 500 nM | IC50 (U87-MG): < 500 nM | IC50 (HN5; Homo sapiens, Head and neck, Table 2 first HN5 line): < 500 nM | IC50 (HN5; head/neck, Table 2 second HN5 line): < 500 nM | IC50 (LNCaP): < 500 nM | IC50 (HCT-15): < 500 nM | IC50 (MDA-MB-468): < 500 nM | IC50 (BT549): < 500 nM | IC50 (Hep3B): < 500 nM | IC50 (T24): < 500 nM | IC50 (A2780): < 500 nM | IC50 (SW156): > 1000 nM | IC50 (MiaPaca): < 500 nM
